Assay results reported in ChEMBL document CHEMBL1149864, “Benzofused N-substituted cyclic enediynes: activation and DNA-cleavage potential” (Bioorg Med Chem, 2008).
Calls of active or inactive are those of the source. No cut-off for these calls is given here.

What was measured:
[1] = system: Escherichia coli; assay: Induction of Escherichia coli pBR322 DNA cleavage assessed as generation of form 3 at 20 uM at pH 8.0 after 24 hrs
[2] = Chemical stability assessed as half life at 30 degC; format: physicochemical
[3] = system: Escherichia coli; assay: Induction of Escherichia coli pBluescript SK+ DNA cleavage assessed as generation of form 3 at 20 uM at pH 8.0 after 12 hrs
[4] = system: Escherichia coli; assay: Induction of Escherichia coli pBR322 DNA cleavage at 0.4 uM at pH 8.0 after 24 hrs
[5] = system: Escherichia coli; assay: Induction of Escherichia coli pBR322 DNA cleavage at 0.4 uM at pH 7.5 after 24 hrs
[6] = system: Escherichia coli; assay: Induction of Escherichia coli pBluescript SK+ DNA cleavage assessed as generation of form 3 at 20 uM at pH 8.0 after 48 hrs
[7] = system: Escherichia coli; assay: Induction of Escherichia coli pBR322 DNA cleavage at 0.4 uM at pH 8.5 after 24 hrs
[8] = Chemical stability assessed as half life at 50 degC; format: physicochemical
[9] = system: Escherichia coli; assay: Induction of Escherichia coli pBR322 DNA cleavage assessed as generation of form 3 at 20 uM at pH 8.0 after 12 hrs
[10] = Chemical stability assessed as half life at 70 degC; format: physicochemical
[11] = Chemical stability assessed as half life at 60 degC; format: physicochemical
[12] = system: Escherichia coli; assay: Induction of Escherichia coli pBR322 DNA cleavage assessed as generation of form 3 at 20 uM at pH 8.0 after 48 hrs

For C1#Cc2ccccc2C#CCNCC1.Cc1ccc(S(=O)(=O)O)cc1, the Activity [1] was “Active”, the half-life [2] was 770 h and the Activity [3] was “inactive”. The Activity [4] was “Active”, the Activity [5] was “Active” and the Activity [6] was “inactive”. The Activity [7] was “Active”, the half-life [8] was 130 h and the Activity [9] was “Active”.

Compound Cc1ccc(S(=O)(=O)N2CC#Cc3ccccc3C#CCC2)cc1 has a half-life [10] of 48 h.

In the case of O=[N+]([O-])c1ccc(S(=O)(=O)N2CC#Cc3ccc([N+](=O)[O-])cc3C#CCC2)cc1, the half-life [10] is reported as 12 h and the half-life [11] is reported as 138 h.

For O=[N+]([O-])c1ccc2c(c1)C#CCCNCC#C2, the Activity [12] was “Active” and the Activity [1] was “Active”.

With O=[N+]([O-])c1ccc(S(=O)(=O)N2CC#Cc3cc([N+](=O)[O-])c([N+](=O)[O-])cc3C#CCC2)cc1 the half-life [10] was 9.5 h.
